Series [1] relates to Staph aureus, MRSA, Klebsiella pneumoniae, E. coli, Proteus vulgaris, Pseudomonas aeruginosa, Enterobacter cloacae, Acinetobacter lwoffi, Acinetobacter …. Put plainly: In-vitro Petri dish comparison of Lots and control antibiotics (FIGS. 16-36). It is filed as cell-based. The note with it: identical size drops (diameters of ZOA); FIGS. 16-25.
Series [2] relates to mouse embryonic stem cells and embryoid bodies. The note with it: cited from earlier work.
The subject of another series is HL-60 cells. The following applies: cited from earlier work; for amount at which desired cellular responses occurred: priming experiments.
The subject of a further series is MRSA. The note with it: IV, 8 days following admission.
Series [3] is described as follows: Study I: vancomycin peaks and troughs in patient. It is filed as in vivo, human. The note with it: 1.5 g BID, Q12, seven doses. Here is the method:
Fri 2/5: Detection of a Strep-A strain, confirmed by culture study. Shifted from gentamycin to vancomycin 1.5 g BID, Q12. Patient was kept on this dosing regimen until 2/8 (date of discharge from hospital).
Mon 2/8: Patient received the last of seven doses of vancomycin. Throughout all of this their peaks (within 1 hour of receiving vancomycin) and troughs (before receiving vancomycin) were normal (ranges not noted here). Patient was discharged from the hospital on this date.

On to `CO[C@@]1(NC(=O)Cc2cccs2)C(=O)N2C(C(=O)O)=C(COC(N)=O)CS[C@@H]21` [Cefoxicillin], for which the “zones of inhibition of control active agents compared with the formulations of the invention” value in series [1] is given as “considerably reduced zones of inhibition”. For the molecule `C[S+](C)[O-]` [DMSO, dimethyl sulfoxide], in series [2], the “effect on epigenetic profiles” value is “upregulation of mRNA and protein expression”. Also, in the series on HL-60 cells, the “amount at which desired cellular responses occurred” value was “less than 2%”. Besides, the “subsequent retinoid-induced TGM2 expression” value in the series on HL-60 cells (priming of the cells by pretreatment) is “increases”. Regarding `CC[C@H]1OC(=O)[C@H](C)[C@@H](O[C@H]2C[C@@](C)(OC)[C@@H](O)[C@H](C)O2)[C@H](C)[C@@H](O[C@@H]2O[C@H](C)C[C@H](N(C)C)[C@H]2O)[C@](C)(O)C[C@@H](C)C(=O)[C@H](C)[C@@H](O)[C@]1(C)O` [Erythromycin], the “zones of inhibition of control active agents compared with the formulations of the invention” value in series [1] is recorded as “considerably reduced zones of inhibition”. As to `CN[C@H](CC(C)C)C(=O)N[C@H]1C(=O)N[C@@H](CC(N)=O)C(=O)N[C@H]2C(=O)N[C@H]3C(=O)N[C@H](C(=O)N[C@H](C(=O)O)c4cc(O)cc(O)c4-c4cc3ccc4O)[C@H](O)c3ccc(c(Cl)c3)Oc3cc2cc(c3O[C@@H]2O[C@H](CO)[C@@H](O)[C@H](O)[C@H]2O[C@H]2C[C@](C)(N)[C@H](O)[C@H](C)O2)Oc2ccc(cc2Cl)[C@H]1O` [Vancomycin], the “patient response to treatment” value with MRSA is “did not respond”. In addition, the “zones of inhibition of control active agents compared with the formulations of the invention” value in series [1] is listed as “considerably reduced zones of inhibition”. Moreover, the “peaks (within 1 hour of receiving) and troughs (before receiving)” value in series [3] was “normal”. As for vitamin D, the “amount at which desired cellular responses occurred” value in the series with HL-60 cells is reported as “about 100 nM”.

Source of the values: US20120076742A1, “Topical drug delivery system with dual carriers” (priority 2010, published 2012).
